# Data reported in patent publication US20200217837A1, “CHROMATIN PROTECTIVE THERAPEUTICS AND CHROMATIN HETEROGENEITY” (Northwestern University, priority 2016, published 2020).
# Entries after “also recorded” stand apart in the source; their conditions may differ.
# What was measured:
# cancer cell lines [1] = experiment: Live cell PWS of chromatin folding/heterogeneity (D, Σ); assay type: cell-based; conditions: for capacity to reduce chromatin folding (D↓, Σ↓): PWS on live cells; for regulation of chromatin topology / heterogeneity: live cells, LC-PWS, within minutes of treatment where stated; for chromatin heterogeneity Σ: within 30 min, p<0.01; for structural alteration of chromatin folding: five cell line models (A2780, M248, MDA-MB-231, MES-SA, MX2)
# Method: Test compounds were screened for CPT activity using live cell PWS imaging. Control and 30-60 minute CPT-treated cells were imaged with live cell PWS to determine their effect on nuclear nanoscale heterogeneity (See FIG. 11A for exemplary tested compounds). […]
# A2780.m248 = experiment: Cell survival by surface coverage (% inhibition / cell death); assay type: cell-based; conditions: for % Inhibition: Ovarian A2780.m248, after 48 hours, surface coverage relative to control
# Method: These compounds were tested in combination with the chemotherapy drug paclitaxel.
# A2780 = experiment: as above; conditions: Ovarian A2780; after 48 hours, surface coverage relative to control
# [2] = system: A2780.m248 ovarian cancer cells; experiment: Live cell PWS screen for CPT activity (mean nuclear sigma); assay type: cell-based; conditions: 30-60 minute treated cells
# [3] = system: pancreatic ductal carcinoma PDX model; experiment: In vivo validation of CPT on patient derived xenographs; conditions: single agent treatment
# Method: The cell lines were treated with standard (IC50) doses of commonly used chemotherapy drugs (5-FU, Paclitaxel, Oxaliplatin, Docetaxel, Gemcitabine, FOLFIRI). […] Experiments were conducted during development of embodiments herein to test CPT in vivo on patient derived xenographs (PDX) of pancreatic ductal carcinoma (FIG. 15i).
# HeLa cells [4] = experiment: γ-H2A.X immunofluorescence (DNA fragmentation); assay type: cell-based; conditions: Hoechst-stained cells after UV excitation versus mock-stained
# Method: Co-registration of live cell PWS imaging and DNA strand damage using phospho-histone H2A.X was performed by immunofluorescent staining on three independent experiments. Cells were fixed for 20 min with 4% paraformaldehyde at room temperature, washed twice with phosphate buffered saline and a permeabilization/blocking step was performed with 0.1% Triton X-100 in 1% bovine serum albumin (Sigma Aldrich, St. Louis Mo.) for 20 min. Cells were again washed twice with PBS and then incubated with AlexaFluor 488 conjugated to anti-γH2A.X (serine 139 residue) rabbit monoclonal antibody (Cell Signaling, Beverly, […].) for 30 minutes. Following incubation with the antibody, cells were imaged using the FITC-EGFP filter on the live cell PWS microscope.
# CHO cells [5] = experiment: Live cell PWS, mean nuclear Σ (chromatin nano-architecture); assay type: cell-based, Chinese Ovarian Hamster
# Method: (§1) Prior to imaging, media within petri dishes was exchanged with fresh, RPMI-1640 Media (lacking phenol red pH indicator, purchased from Life Technologies) supplemented with 10% FBS (Sigma Aldrich, St. Louis Mo.). For DNA fragmentation experiments, live cell PWS images were acquired at room temperature (22° C.) and in trace CO2 (open air) conditions for cells subsequently stained with Hoechst 33342. During acquisition of time series data (UV and Controls, metabolic perturbation), cells were maintained at physiological conditions for the duration of the experiment. For imaging, a reference scattering spectra was obtained from an open surface of the substrate coverslip immersed in media prior to any cellular imaging to normalize the intensity of light scattered for each wavelength at each pixel. Σ is defined as the spectral standard deviation of our measured reflectance intensity normalized to this reference scattering spectra from the substrate-media interface. […] For Hoechst induced DNA damage experiments, significance was determined using Student's T-test with unpaired, unequal variance on nuclear Δ(Σ) between the conditions indicated in the experiment in both Mathematica v.10 and Microsoft Excel (Microsoft, Redmond, Wash.) with n=146 for Hoechst stained HeLa cells from 11 replicates and n=87 for Hoechst stained CHO cells from 5 replicates. […]
# HeLa cells [6] = experiment: as above; assay type: cell-based
# Method: as §1
# HeLa cells [7] = experiment: Mitochondrial membrane potential by TMRE flow cytometry; assay type: cell-based; conditions: 10 μM CCCP
# Method: (§2) HeLa and CHO cells were grown and prepared for live cell imaging as previously described. Cell measurements for a single field of view were sequentially obtained for 3 minutes prior to treatment with CCCP. HeLa (n=31 from 6 independent experiments) and CHO (n=159 from 5 independent experiments) cells were treated with 10 μM for 15 minutes and imaged before and after treatment. Mock treated cells were incubated with 0.01% DMSO to account for the effect of DMSO solvent on the cells. […] Mitochondrial membrane potential ΔΨm was measured by flow cytometry (BD LSRII at the Northwestern Flow Cytometry Core) for tetramethylrhodamine (TMRE, purchased from Life Technologies, Carlsbad Calif.) stained cells. In brief, cells were trypsinized and immediately stained with 50 nM of TMRE for 30 minutes. Cells were washed twice with PBS after staining and suspended in 1 ml of PBS. CCCP treated cells were treated for 15 minutes to replicate conditions during live cell live cell PWS imaging. At least 20,000 cells were selected by forward and side scattering channels for each group, with a double elimination of doublets from the final analysis. Mean TMRE intensity from each replicate population was used for representative comparison between treated and untreated groups.
# CHO cells [8] = experiment: as above; assay type: cell-based, Chinese Ovarian Hamster; conditions: 10 μM CCCP
# Method: as §2
# cancer cell lines [9] = experiment: Single-cell sequencing of transcriptional heterogeneity; assay type: cell-based
# From the text: Although partial regulation of folding is achieved through molecular-specific chromatin remodelers (Refs. 12c, 40c; incorporated by reference in their entireties) (CTCF, SWI/SNF, histone modifications), a more efficient global regulation is governed by physico-chemical mechanisms (FIG. 16). A cardiovascular drug digoxin provides one such example.
# MES-SA MX2 = experiment: Cell survival by surface coverage (% inhibition); assay type: cell-based; conditions: Sarcoma MES-SA MX2
# MES-SA = experiment: Cell survival by surface coverage (% inhibition); assay type: cell-based; conditions: Sarcoma MES-SA
# A2780 cells = experiment: LC-PWS microscopy quantification of chromatin heterogeneity; assay type: cell-based; conditions: 5 nM for 24 hours
# MDA-MB-231 = experiment: Cell survival by surface coverage (% inhibition); conditions: Breast MDA-MB-231
smiles,measurement,setting,value
CC(C)[C@@H]1NC(=O)[C@H](C)OC(=O)[C@@H](C(C)C)NC(=O)[C@@H](C(C)C)OC(=O)[C@H](C(C)C)NC(=O)[C@H](C)OC(=O)[C@@H](C(C)C)NC(=O)[C@@H](C(C)C)OC(=O)[C@H](C(C)C)NC(=O)[C@H](C)OC(=O)[C@@H](C(C)C)NC(=O)[C@@H](C(C)C)OC1=O [valinomycin],"capacity to reduce chromatin folding (D↓, Σ↓)",cancer cell lines [1],reduce chromatin folding
same,regulation of chromatin topology / heterogeneity,cancer cell lines [1],potent regulators of chromatin topology; also recorded: global regulators of chromatin heterogeneity
O=C(O[C@@H]1Cc2c(O)cc(O)cc2O[C@@H]1c1cc(O)c(O)c(O)c1)c1cc(O)c(O)c(O)c1 [EGCG],"capacity to reduce chromatin folding (D↓, Σ↓)",cancer cell lines [1],reduce chromatin folding
CC(=O)Oc1ccccc1C(=O)O [aspirin],"capacity to reduce chromatin folding (D↓, Σ↓)",cancer cell lines [1],reduce chromatin folding
same,regulation of chromatin topology / heterogeneity,cancer cell lines [1],potent regulators of chromatin topology; also recorded: global regulators of chromatin heterogeneity
Cc1ccc(-c2cc(C(F)(F)F)nn2-c2ccc(S(N)(=O)=O)cc2)cc1 [Celecoxib],"capacity to reduce chromatin folding (D↓, Σ↓)",cancer cell lines [1],reduce chromatin folding
same,regulation of chromatin topology / heterogeneity,cancer cell lines [1],homogenization of chromatin; also recorded: potent regulators of chromatin topology; also recorded: global regulators of chromatin heterogeneity
same,chromatin heterogeneity Σ,cancer cell lines [1],Σ↓
same,% Inhibition,A2780.m248,0%
same,% Inhibition,A2780,0%
same,mean nuclear sigma,[2],decrease in mean nuclear sigma
Cn1cc(C2=C(c3coc4ccc(F)cc34)C(=O)NC2=O)c2cc3c(cc21)OCO3 [9-ING-41],"capacity to reduce chromatin folding (D↓, Σ↓)",cancer cell lines [1],reduce chromatin folding
same,Σ / CPT strength in multiple cancer cell lines,"cancer cell lines [1]; colonic, pancreatic, ovarian, and mesothelioma lines",strong CPT; also recorded: decreases Σ
same,tumor size,[3],continued to expand in size
COc1cc(/C=C/C(=O)CC(=O)/C=C/c2ccc(O)c(OC)c2)ccc1O [Curcumin],"capacity to reduce chromatin folding (D↓, Σ↓)",cancer cell lines [1],reduce chromatin folding
CCOc1ccc(-c2nc3ccc(-c4nc5ccc(N6CCN(C)CC6)cc5[nH]4)cc3[nH]2)cc1 [Hoechst 33342],γ-H2A.X antibody accumulation,HeLa cells [4],drastic accumulation
same,change (decrease) in mean-nuclear Σ,"CHO cells [5]; Hoechst-stained, after UV exposure (excitation)",−7.1%
same,decrease in mean-nuclear Σ,"HeLa cells [6]; Hoechst-stained, after a few seconds of UV exposure (excitation)",17.01%
CCCC(CCC)C(=O)O [valproic acid],chromatin heterogeneity Σ,cancer cell lines [1],Σ↓
"N#CC(C#N)=NNc1cccc(Cl)c1 [CCCP, carbonyl cyanide m-chlorophenyl hydrazone]",regulation of chromatin topology / heterogeneity,cancer cell lines [1],potent regulators of chromatin topology; also recorded: global regulators of chromatin heterogeneity
same,decrease in TMRE fluorescence,HeLa cells [7],10 fold
same,ΔΨm as gauged by TMRE fluorescence,HeLa cells [7],rapidly lost ΔΨm
same,change in mean-nuclear Σ,"CHO cells [5]; 10 μM CCCP, 15 minutes",no significant increase
same,decrease in mean-nuclear Σ,"HeLa cells [6]; 10 μM CCCP, 15 minutes",10%
same,change in TMRE fluorescence,CHO cells [8],no significant change
"C[C@H]1O[C@@H](O[C@H]2[C@@H](O)C[C@H](O[C@H]3[C@@H](O)C[C@H](O[C@H]4CC[C@@]5(C)[C@H](CC[C@@H]6[C@@H]5C[C@@H](O)[C@]5(C)[C@@H](C7=CC(=O)OC7)CC[C@]65O)C4)O[C@@H]3C)O[C@@H]2C)C[C@H](O)[C@@H]1O [Digoxin, digoxin]","capacity to reduce chromatin folding (D↓, Σ↓)",cancer cell lines [1],reduce chromatin folding
same,chromatin D,"cancer cell lines [1]; cell culture, within 30 min after application",D↓
same,structural alteration of chromatin folding,cancer cell lines [1],decreases chromatin folding
same,regulation of chromatin topology / heterogeneity,cancer cell lines [1],homogenization of chromatin; also recorded: potent regulators of chromatin topology; also recorded: global regulators of chromatin heterogeneity
same,chromatin heterogeneity Σ,cancer cell lines [1],Σ↓
same,transcriptional divergence and heterogeneity,cancer cell lines [9],lower intracellular transcriptional divergence and intercellular heterogeneity
same,mean nuclear sigma,[2],decrease in mean nuclear sigma
Nc1ccn([C@@H]2O[C@H](CO)[C@@H](O)C2(F)F)c(=O)n1 [gemcitabine],tumor size,[3],continued to expand in size
CC1=C(CC(=O)O)c2cc(F)ccc2/C1=C\c1ccc([S+](C)[O-])cc1 (stereo not shown) [sulindac],chromatin heterogeneity Σ,cancer cell lines [1],not
CC(=O)O[C@@]12CO[C@@H]1C[C@H](O)[C@@]1(C)C(=O)[C@H](O)C3=C(C)[C@@H](OC(=O)[C@H](O)[C@@H](NC(=O)OC(C)(C)C)c4ccccc4)C[C@@](O)([C@@H](OC(=O)c4ccccc4)[C@H]21)C3(C)C [Docetaxel],structural alteration of chromatin folding,cancer cell lines [1],increases
same,% Inhibition,MES-SA MX2,79%
same,% Inhibition,MES-SA,65%
CC(=O)O[C@H]1C(=O)[C@@]2(C)[C@H]([C@H](OC(=O)c3ccccc3)[C@]3(O)C[C@H](OC(=O)[C@H](O)[C@@H](NC(=O)c4ccccc4)c4ccccc4)C(C)=C1C3(C)C)[C@]1(OC(C)=O)CO[C@@H]1C[C@@H]2O [Paclitaxel],structural alteration of chromatin folding,cancer cell lines [1],increases
same,chromatin heterogeneity after treatment,A2780 cells,increase in chromatin heterogeneity
same,% Inhibition,MDA-MB-231,50%
same,Surface coverage relative to control (% survival),A2780.m248; A2780.m248,43%
same,% Inhibition,A2780.m248,57%
same,% Inhibition,A2780,21%
